Measured values from BindingDB's records for PubMed 8531090 (Roche Bioscience, 1995).
Positions of bridges follow the written chain, without caps; N, C: chain ends. Non-standard residues stand in square brackets, D forms with d. Residues, ends and D or L forms follow the SMILES beside them. Chains are numbered I, II in the order given. Dap = NC[C@H](N)C(=O)O

Target: T1, Neuropeptide Y receptor type 1 (Rattus norvegicus, UniProt P21555)
T1 sequence (P21555 whole entry): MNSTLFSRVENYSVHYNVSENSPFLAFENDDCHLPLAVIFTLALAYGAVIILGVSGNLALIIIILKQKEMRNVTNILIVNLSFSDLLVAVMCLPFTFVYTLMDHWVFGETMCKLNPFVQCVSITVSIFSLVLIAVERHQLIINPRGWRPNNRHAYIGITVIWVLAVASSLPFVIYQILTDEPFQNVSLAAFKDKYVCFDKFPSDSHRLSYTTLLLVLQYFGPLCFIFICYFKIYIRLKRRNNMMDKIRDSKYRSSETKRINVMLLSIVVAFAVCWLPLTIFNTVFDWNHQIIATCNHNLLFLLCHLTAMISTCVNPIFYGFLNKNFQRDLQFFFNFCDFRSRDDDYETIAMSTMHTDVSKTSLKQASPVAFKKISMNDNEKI

CC[C@H](C)[C@H](N)C(=O)N[C@H]1CCC(=O)NC[C@@H](C(=O)N[C@@H](Cc2ccc(O)cc2)C(=O)N[C@@H](CCCN=C(N)N)C(=O)N[C@@H](CC(C)C)C(=O)N[C@@H](CCCN=C(N)N)C(=O)N[C@@H](Cc2ccc(O)cc2)C(N)=O)NC(=O)[C@@H]2CCCN2C(=O)[C@@H](NC(=O)[C@@H](N)[C@@H](C)CC)CCC(=O)NC[C@@H](C(=O)N[C@@H](Cc2ccc(O)cc2)C(=O)N[C@@H](CCCN=C(N)N)C(=O)N[C@@H](CC(C)C)C(=O)N[C@@H](CCCN=C(N)N)C(=O)N[C@@H](Cc2ccc(O)cc2)C(N)=O)NC(=O)[C@@H]2CCCN2C1=O [1229U91] (I: H-IEP[Dap]YRLRY-NH2 / II: H-IEP[Dap]YRLRY-NH2; amide I:2-II:4, I:4-II:2)
Ki: 12.6 nM
